From patent publication US20230212549A1, “COMPOUNDS COMPRISING A […] LIGAND AND USE THEREOF” (priority 2021, published 2023)

Columns and labels:
[1] = target: T1, FAP-expressing human WI-38 fibroblasts (Homo sapiens, UniProt Q12884); test: Competitive FACS binding assay
T1 construct: FAP-expressing human WI-38 fibroblasts (ECACC) were cultured in EMEM; host or cells: WI-38 human fibroblasts
Protocol: Cells were analyzed in an Attune NxT flow cytometer. […] […].
Cells were analyzed in an Attune NxT flow cytometer. […]

Human recombinant FAP [2] = target: T2, Human recombinant FAP (Homo sapiens, UniProt Q12884); test: Surface plasmon resonance (Biacore) assay; type: binding
Human recombinant FAP [3] = target: T2, Human recombinant FAP; test: FRET-based FAP protease activity assay; type: biochemical; parameters: purchased R&D systems 3715-SE; conditions: pIC50 Category (Activity), FRET-peptide substrate, 37° C.
[4] = Radiochemical purity by HPLC of ^99mTc-labeled compounds; type: physicochemical; conditions: 99Tc-labeled compounds; for HPLC Area % appr. 4 h post end of synthesis: (3 h)
Protocol: 100-500 MBq of ^99mTcO4 (in saline) were mixed with 11 μl of 0.5 M phosphate buffer pH 11.5-12.0 and 1.1 μl of 0.1 M trisodium citrate per 100 μl radionuclide solution. […] The mixture was incubated for 30 min at 25-50′° C. At the end of the incubation time, the mixture was neutralized with 3.0 μl 1 M HCl per 10 μl phosphate buffer and TWEEN-20 was added at a final concentration of 0.100.

in vivo = conditions: swiss nude, mouse, iv

T2 sequence (Q12884 whole entry): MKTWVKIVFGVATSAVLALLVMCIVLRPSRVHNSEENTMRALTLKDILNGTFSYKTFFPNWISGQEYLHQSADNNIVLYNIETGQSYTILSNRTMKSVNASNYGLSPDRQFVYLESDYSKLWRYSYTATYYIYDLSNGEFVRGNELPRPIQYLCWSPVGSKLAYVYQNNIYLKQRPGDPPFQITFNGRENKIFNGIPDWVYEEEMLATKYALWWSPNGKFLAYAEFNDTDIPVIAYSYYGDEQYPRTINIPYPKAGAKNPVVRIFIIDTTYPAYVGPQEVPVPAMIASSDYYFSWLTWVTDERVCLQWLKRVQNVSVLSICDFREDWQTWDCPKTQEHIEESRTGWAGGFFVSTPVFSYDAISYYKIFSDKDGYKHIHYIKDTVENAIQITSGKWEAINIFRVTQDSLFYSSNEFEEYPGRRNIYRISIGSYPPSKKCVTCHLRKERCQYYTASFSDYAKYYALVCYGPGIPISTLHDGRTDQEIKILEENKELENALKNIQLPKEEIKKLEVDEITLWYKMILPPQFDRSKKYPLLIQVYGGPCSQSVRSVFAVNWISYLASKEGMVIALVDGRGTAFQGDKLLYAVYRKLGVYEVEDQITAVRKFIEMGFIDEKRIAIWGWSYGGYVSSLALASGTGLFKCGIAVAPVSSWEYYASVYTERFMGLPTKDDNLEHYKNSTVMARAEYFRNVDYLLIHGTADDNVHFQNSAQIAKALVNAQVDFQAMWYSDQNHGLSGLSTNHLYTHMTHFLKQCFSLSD
T1 sequence (Q12884 whole entry): as above

Row | SMILES | IC50 [1] | Kd (Human recombinant FAP [2]) | IC50 (Human recombinant FAP [3]) | HPLC Area % at end of synthesis [4] | HPLC Area % appr. 4 h post end of synthesis [4] | tissue uptake at 1 h (in vivo; blood pool surrogate (BPS)) | tissue uptake at 3 h (in vivo; blood pool surrogate (BPS)) | tissue uptake at 6 h (in vivo; blood pool surrogate (BPS)) | tissue uptake at 1 h (in vivo; kidneys) | tissue uptake at 3 h (in vivo; kidneys) | tissue uptake at 6 h (in vivo; kidneys) | tissue uptake at 1 h (in vivo; tumor) | tissue uptake at 3 h (in vivo; tumor) | tissue uptake at 6 h (in vivo; tumor)
1 | CCCC[C@H](NC(=O)CCC(=O)NCCCOCCOCCOCCCNC(=O)[C@H](CCC(=O)NC[C@H](O)[C@@H](O)[C@H](O)[C@H](O)CO)NC(=O)C(CNCCN)CNCCN)C(=O)N[C@H]1CSCc2cccc(c2)CSC[C@@H](C(=O)O)NC(=O)[C@H](Cc2ccccc2)NC(=O)[C@H](CCC(N)=O)NC(=O)[C@H]([C@@H](C)O)NC(=O)[C@@H]2CCCN2C(=O)[C@@H]2CCCN2C1=O [3BP-4246, N4Ac-Glu(AGLU)-Ttds-Nle-[Cys-(3MeBn)-Pro-Pro-Thr-Gln-Phe-Cys]-OH] | 10 to 79.4 nM | < 10 nM | 10 to 79.4 nM |  |  |  |  |  |  |  |  |  |  | 
2 | CCCCCC(=O)N[C@H]1CSCc2cc(CSCCNC(=O)COCCOCCNC(=O)CCC(C(=O)O)N3CCN(CC(=O)O)CCN(CC(=O)O)CC3)cc(c2)CSC[C@@H](C(=O)O)NC(=O)[C@H](Cc2ccccc2)NC(=O)[C@H](CCC(N)=O)NC(=O)[C@H]([C@@H](C)O)NC(=O)[C@@H]2CCCN2C(=O)[C@@H]2CCCN2C1=O (stereo partly drawn) [3BP-4251, Hex-[Cys-(tMeBn(NODAGA-O2Oc-AET))-Pro-Pro-Thr-Gln-Phe-Cys]-OH] | < 10 nM | < 10 nM | < 10 nM |  |  |  |  |  |  |  |  |  |  | 
3 | CCCCNC(=O)N[C@H]1CSCc2cc(cc(CN3CCN(C(=O)C(CNCCN)CNCCN)CC3)c2)CSC[C@@H](C(=O)O)NC(=O)[C@H](Cc2ccccc2)NC(=O)[C@H](CCC(N)=O)NC(=O)[C@H]([C@@H](C)O)NC(=O)[C@@H]2CCCN2C(=O)[C@@H]2CCCN2C1=O [3BP-4533, nBu-CAyl-[Cys(tMeBn(N4Ac-PP))-Pro-Pro-Thr-Gln-Phe-Cys]-OH] | < 10 nM |  | < 10 nM | 99.3% | 98.2% | 1.72 %ID/g | 1.46 %ID/g | 0.86 %ID/g | 6.04 %ID/g | 4.43 %ID/g | 3.04 %ID/g | 5.45 %ID/g | 6.27 %ID/g | 6.75 %ID/g
4 | CCCCNC(=O)N[C@H]1CSCc2cc(CSCCNC(=O)C(CNCCN)CNCCN)cc(c2)CSC[C@@H](C(=O)O)NC(=O)[C@H](Cc2ccccc2)NC(=O)[C@H](CCC(N)=O)NC(=O)[C@H]([C@@H](C)O)NC(=O)[C@@H]2CCCN2C(=O)[C@@H]2CCCN2C1=O [3BP-4534, nBu-CAyl-[Cys(tMeBn(N4Ac-AET))-Pro-Pro-Thr-Gln-Phe-Cys]-OH] | < 10 nM |  | < 10 nM | 98.6% | 97.5% | 1.7 %ID/g | 1.19 %ID/g | 0.78 %ID/g | 2.06 %ID/g | 1.4 %ID/g | 1.09 %ID/g | 5.67 %ID/g | 6.85 %ID/g | 7.68 %ID/g
5 | CCCCNC(=O)N[C@H]1CSCc2cc(cc(CN3CCN(C(=O)CN4CCN(CC(=O)O)CCN(CC(=O)O)CCN(CC(=O)O)CC4)CC3)c2)CSC[C@@H](C(=O)O)NC(=O)[C@H](Cc2ccccc2)NC(=O)[C@H](CCC(N)=O)NC(=O)[C@H]([C@@H](C)O)NC(=O)[C@@H]2CCCN2C(=O)[C@@H]2CCCN2C1=O [3BP-4564, nBu-CAyl-[Cys(tMeBn(DOTA-PP))-Pro-Pro-Thr-Gln-Phe-Cys]-OH] | < 10 nM | < 10 nM | < 10 nM |  |  |  |  |  |  |  |  |  |  | 
6 | CCCCNC(=O)N[C@H]1CSCc2cc(cc(CN3CCN(C(=O)CN4CCN(CC(=O)O)CCN(CC(=O)O)CCN(CC(=O)O)CC4)CC3)c2)CSC[C@@H](C(N)=O)NC(=O)[C@H](Cc2ccccc2)NC(=O)[C@H](CCC(N)=O)NC(=O)[C@H]([C@@H](C)O)NC(=O)[C@@H]2CCCN2C(=O)[C@@H]2CCCN2C1=O [3BP-4565, nBu-CAyl-[Cys(tMeBn(DOTA-PP))-Pro-Pro-Thr-Gln-Phe-Cys]-NH2] | < 10 nM | < 10 nM | < 10 nM |  |  |  |  |  |  |  |  |  |  | 
